Measured values reported in patent US20250171457A1, “NITROGEN-CONTAINING HETEROCYCLIC COMPOUND HAVING NRF2 ACTIVATION EFFECT” (CHUGAI SEIYAKU KABUSHIKI KAISHA, priority 2022, published 2025).

Test system: Nrf2 transcriptional activity (pARE-Luc reporter) in HepG2 cells
Test: In vitro Nrf2 transcriptional activity measurement by ARE-dependent reporter assay in HepG2 cell
Assay type: cell-based, human
Conditions: Homo sapiens; HepG2 cells transfected with pARE-Luc, 4 hours at 37° C.; luciferase activity of Example 1-54 or Example 17-23 at 3.75 μM defined as 100%
How it was run: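 HepG2 cells transfected with pGL4.37 (pARE-Luc), replated onto compound and incubated 4 h at 37° C; luciferase read by Bright-Glo luminescence. Response normalized to 100% set by a reference compound at 3.75 μM; EC50 from dose-response curve.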

Row | EC50 [nM] | Compound
1 | 5.9 | COc1cc(Cl)c(C(=O)N2COc3c(cccc3-c3cc(N4CCOCC4)c(C(=O)O)cc3F)C2)cc1OC [Compound 13-17, 4-[3-(2-Chloro-4,5-dimethoxybenzoyl)-2,4-dihydro-1,3-benzoxazin-8-yl]-5-fluoro-2-morpholin-4-ylbenzoic acid]
2 | 21 | Cn1cc(-c2cc(Cl)c(C(=O)N3CSc4c(cccc4-c4cc(N5CCOCC5)c(C(=O)O)cc4F)C3)c(Cl)c2)cn1 [Compound 13-18, 4-[3-[2,6-Dichloro-4-(1-methylpyrazol-4-yl)benzoyl]-2,4-dihydro-1,3-benzothiazin-8-yl]-5-fluoro-2-morpholin-4-ylbenzoic acid]
3 | 1.6 | Cn1cc(-c2cc(Cl)c(C(=O)N3COc4c(cccc4-c4cc(N5CCOCC5)c(C(=O)O)cc4F)C3)c(Cl)c2)cn1 [Compound 13-19, 4-[3-[2,6-Dichloro-4-(1-methylpyrazol-4-yl)benzoyl]-2,4-dihydro-1,3-benzoxazin-8-yl]-5-fluoro-2-morpholin-4-ylbenzoic acid]
4 | 7.2 | Cc1cc(-c2cccc3c2OCN(C(=O)c2c(Cl)cc(-c4cnn(C)c4)cc2Cl)C3)cc(N2CCOCC2)c1C(=O)O [Compound 13-20, 4-[3-[2,6-Dichloro-4-(1-methylpyrazol-4-yl)benzoyl]-2,4-dihydro-1,3-benzoxazin-8-yl]-2-methyl-6-morpholin-4-ylbenzoic acid]
5 | 6.5 | Cn1cc(-c2cc(Cl)c(C(=O)N3COc4c(cccc4-c4cc(N5CC6COCC6C5)c(C(=O)O)cc4F)C3)c(Cl)c2)cn1 (stereo not shown) [Compound 14-2, 2-(1,3,3a,4,6,6a-Hexahydrofuro[3,4-c]pyrrol-5-yl)-4-[3-[2,6-dichloro-4-(1-methylpyrazol-4-yl)benzoyl]-2,4-dihydro-1,3-benzoxazin-8-yl]-5-fluorobenzoic acid]
6 | 12 | Cn1cc(-c2cc(Cl)c(C(=O)N3COc4c(cccc4-c4ccc(C(=O)O)c(N5CCC(F)(F)CC5)c4)C3)c(Cl)c2)cn1 [Compound 14-3, 4-[3-[2,6-Dichloro-4-(1-methylpyrazol-4-yl)benzoyl]-2,4-dihydro-1,3-benzoxazin-8-yl]-2-(4,4-difluoropiperidin-1-yl)benzoic acid]
7 | 3.8 | Cn1cc(-c2cc(Cl)c(C(=O)N3Cc4cccc(-c5ccc(C(=O)O)c(N6CCOCC6)c5)c4C(=O)N3)c(Cl)c2)cn1 [Compound 14-4, 4-[2-[2,6-Dichloro-4-(1-methylpyrazol-4-yl)benzoyl]-4-oxo-1,3-dihydrophthalazin-5-yl]-2-morpholin-4-ylbenzoic acid]
8 | 3.1 | Cn1cc(-c2cc(Cl)c(C(=O)N3CNc4c(cccc4-c4ccc(C(=O)O)c(N5CCOCC5)c4)C3)c(Cl)c2)cn1 [Compound 14-5, 4-[3-[2,6-Dichloro-4-(1-methylpyrazol-4-yl)benzoyl]-2,4-dihydro-1H-quinazolin-8-yl]-2-morpholin-4-ylbenzoic acid]
9 | 20 | Cn1cc(-c2cc(Cl)c(C(=O)N3Cc4cccc(-c5ccc(C(=O)O)c(N6CCOCC6)c5)c4NC3=O)c(Cl)c2)cn1 [Compound 14-6, 4-[3-[2,6-Dichloro-4-(1-methylpyrazol-4-yl)benzoyl]-2-oxo-1,4-dihydroquinazolin-8-yl]-2-morpholin-4-ylbenzoic acid]
10 | 2.5 | [2H]C1([2H])c2cccc(-c3ccc(C(=O)O)c(N4CCOCC4)c3)c2OCN1C(=O)c1c(Cl)cc(-c2cnn(C)c2)cc1Cl [Compound 14-7, 4-[4,4-Dideuterio-3-[2,6-dichloro-4-(1-methylpyrazol-4-yl)benzoyl]-2H-1,3-benzoxazin-8-yl]-2-morpholin-4-ylbenzoic acid]
11 | 70 | Cn1cc(-c2cc(Cl)c(C(=O)N3Cc4cccc(-c5ccc(C(=O)O)c(N6CCOCC6)c5)c4CO3)c(Cl)c2)cn1 [Compound 14-8, 4-[3-[2,6-Dichloro-4-(1-methylpyrazol-4-yl)benzoyl]-1,4-dihydro-2,3-benzoxazin-8-yl]-2-morpholin-4-ylbenzoic acid]
12 | 4.9 | CC(C)(O)Cn1cc(-c2cc(Cl)c(C(=O)N3COc4c(cccc4-c4ccc(C(=O)O)c(N5CCOCC5)c4)C3)c(Cl)c2)cn1 [Compound 15-1, 4-[3-[2,6-Dichloro-4-[1-(2-hydroxy-2-methylpropyl)pyrazol-4-yl]benzoyl]-2,4-dihydro-1,3-benzoxazin-8-yl]-2-morpholin-4-ylbenzoic acid]
13 | 21 | C[C@H](O)Cn1cc(-c2cc(Cl)c(C(=O)N3COc4c(cccc4-c4ccc(C(=O)O)c(N5CCOCC5)c4)C3)c(Cl)c2)cn1 [Compound 15-2, 4-[3-[2,6-Dichloro-4-[1-[(2S)-2-hydroxypropyl]pyrazol-4-yl]benzoyl]-2,4-dihydro-1,3-benzoxazin-8-yl]-2-morpholin-4-ylbenzoic acid]
14 | 1.5 | COC[C@H](O)Cn1cc(-c2cc(Cl)c(C(=O)N3COc4c(cccc4-c4cc(N5CCOCC5)c(C(=O)O)cc4F)C3)c(Cl)c2)cn1 [Compound 15-3, 4-[3-[2,6-Dichloro-4-[1-[(2R)-2-hydroxy-3-methoxypropyl]pyrazol-4-yl]benzoyl]-2,4-dihydro-1,3-benzoxazin-8-yl]-5-fluoro-2-morpholin-4-ylbenzoic acid]
15 | 6.8 | COC[C@H](O)Cn1cc(-c2cc(Cl)c(C(=O)N3COc4c(cccc4-c4ccc(C(=O)O)c(N5CCOCC5)c4)C3)c(Cl)c2)cn1 [Compound 15-4, 4-[3-[2,6-Dichloro-4-[1-[(2R)-2-hydroxy-3-methoxypropyl]pyrazol-4-yl]benzoyl]-2,4-dihydro-1,3-benzoxazin-8-yl]-2-morpholin-4-ylbenzoic acid]
16 | 200 | Cn1cc(-c2cc(Cl)c(C(=O)N3COc4c(cccc4-c4ccc(-c5nnn[nH]5)c(N5CCOCC5)c4)C3)c(Cl)c2)cn1 [Compound 16-5, [2,6-Dichloro-4-(1-methylpyrazol-4-yl)phenyl]-[8-[3-morpholin-4-yl-4-(1H-tetrazol-5-yl)phenyl]-2,4-dihydro-1,3-benzoxazin-3-yl]methanone]

Row | Compound | EC50 [nM]
17 | COCCN1CCN(c2cc(Cl)c(C(=O)N3COc4c(cccc4-c4cc(N5C6CCC5COC6)c(C(=O)O)cc4F)C3)c(Cl)c2)CC1 [Compound 14-9, 4-[3-[2,6-Dichloro-4-[4-(2-methoxyethyl)piperazin-1-yl]benzoyl]-2,4-dihydro-1,3-benzoxazin-8-yl]-5-fluoro-2-(3-oxa-8-azabicyclo[3.2.1]octan-8-yl)benzoic acid] | 3.7
18 | CC1(O)CC2(CN(c3cc(Cl)c(C(=O)N4COc5c(cccc5-c5cc(N6C7CCC6COC7)c(C(=O)O)cc5F)C4)c(Cl)c3)C2)C1 [Compound 16-1, 4-[3-[2,6-Dichloro-4-(6-hydroxy-6-methyl-2-azaspiro[3.3]heptan-2-yl)benzoyl]-2,4-dihydro-1,3-benzoxazin-8-yl]-5-fluoro-2-(3-oxa-8-azabicyclo[3.2.1]octan-8-yl)benzoic acid] | 13
19 | COC1(C)CC2(CN(c3cc(Cl)c(C(=O)N4COc5c(cccc5-c5cc(N6C7CCC6COC7)c(C(=O)O)cc5F)C4)c(Cl)c3)C2)C1 [Compound 16-2, 4-[3-[2,6-Dichloro-4-(6-methoxy-6-methyl-2-azaspiro[3.3]heptan-2-yl)benzoyl]-2,4-dihydro-1,3-benzoxazin-8-yl]-5-fluoro-2-(3-oxa-8-azabicyclo[3.2.1]octan-8-yl)benzoic acid] | 1.5
20 | C[C@@H]1CN(C)CCN1c1cc(Cl)c(C(=O)N2COc3c(cccc3-c3cc(N4C5CCC4COC5)c(-c4n[nH]c(=O)o4)cc3F)C2)c(Cl)c1 [Compound 16-3, 5-[4-[3-[2,6-Dichloro-4-[(2R)-2,4-dimethylpiperazin-1-yl]benzoyl]-2,4-dihydro-1,3-benzoxazin-8-yl]-5-fluoro-2-(3-oxa-8-azabicyclo[3.2.1]octan-8-yl)phenyl]-3H-1,3,4-oxadiazol-2-one] | 17
21 | C[C@@H]1CN(C)CCN1c1cc(Cl)c(C(=O)N2COc3c(cccc3-c3cc(N4C5CCC4COC5)c(-c4nnn[nH]4)cc3F)C2)c(Cl)c1 [Compound 16-4, [2,6-Dichloro-4-[(2R)-2,4-dimethylpiperazin-1-yl]phenyl]-[8-[2-fluoro-5-(3-oxa-8-azabicyclo[3.2.1]octan-8-yl)-4-(1H-tetrazol-5-yl)phenyl]-2,4-dihydro-1,3-benzoxazin-3-yl]methanone] | 110
22 | COC1CN(c2cc(Cl)c(C(=O)N3COc4c(cccc4-c4cc(N5C6CCC5COC6)c(C(=O)NS(C)(=O)=O)cc4F)C3)c(Cl)c2)C1 [Compound 16-6, 4-[3-[2,6-Dichloro-4-(3-methoxyazetidin-1-yl)benzoyl]-2,4-dihydro-1,3-benzoxazin-8-yl]-5-fluoro-N-methylsulfonyl-2-(3-oxa-8-azabicyclo[3.2.1]octan-8-yl)benzamide] | 170
23 | O=C(O)c1cc(F)c(-c2cccc3c2OCN(C(=O)c2c(Cl)cc(N4CC5(C4)CC(F)(F)C5)cc2Cl)C3)cc1N1C2CCC1COC2 [Compound 16-7, 4-[3-[2,6-Dichloro-4-(6,6-difluoro-2-azaspiro[3.3]heptan-2-yl)benzoyl]-2,4-dihydro-1,3-benzoxazin-8-yl]-5-fluoro-2-(3-oxa-8-azabicyclo[3.2.1]octan-8-yl)benzoic acid] | 1.4
24 | O=C(O)c1cc(F)c(-c2cccc3c2OCN(C(=O)c2c(Cl)cc(N4CC5(CC(F)C5)C4)cc2Cl)C3)cc1N1C2CCC1COC2 [Compound 16-8, 4-[3-[2,6-Dichloro-4-(6-fluoro-2-azaspiro[3.3]heptan-2-yl)benzoyl]-2,4-dihydro-1,3-benzoxazin-8-yl]-5-fluoro-2-(3-oxa-8-azabicyclo[3.2.1]octan-8-yl)benzoic acid] | 3.9
25 | Cn1nnc(-c2cc(Cl)c(C(=O)N3COc4c(cccc4-c4cc(N5C6CCC5COC6)c(C(=O)O)cc4F)C3)c(Cl)c2)n1 [Compound 16-9, 4-[3-[2,6-Dichloro-4-(2-methyltetrazol-5-yl)benzoyl]-2,4-dihydro-1,3-benzoxazin-8-yl]-5-fluoro-2-(3-oxa-8-azabicyclo[3.2.1]octan-8-yl)benzoic acid] | 12
